Experimental data taken from ChEMBL document CHEMBL1147737, “4-(3'alpha15'beta-dihydroxy-5'beta-estran-17'beta-yl)furan-2-methyl alcohol: an anti-digoxin agent with a novel mechanism of action” (2006).
The source made the active and inactive calls.

Columns and labels:
[1] = species: Cavia porcellus; experiment: Inhibition of 1 uM digoxin-induced increase in the force of contraction in guinea pig papillary muscle at 10 uM; type: functional
[2] = system: NT2; experiment: Inhibition of digoxin-induced transferrin accumulation in NT2 cells; type: functional, cell-based; settings: Homo sapiens
[3] = system: Sodium/potassium-transporting ATPase (Cavia porcellus); experiment: Binding affinity to CS receptor on Na+-ATPase; settings: filed as antagonist
[4] = system: Sodium/potassium-transporting ATPase (Cavia porcellus); experiment: Binding affinity to CS receptor on K(+)-ATPase; settings: filed as antagonist
[5] = species: Cavia porcellus; experiment: Inhibition of digoxin-induced arrhythmias in guinea pig papillary muscle; type: functional

Measured: Activity

C[C@]12CC[C@H]3[C@@H](CC[C@@H]4C[C@H](O)CC[C@@H]43)[C@@H]1[C@H](O)C[C@@H]2c1coc(CO)c1
active: [1] | [2] | [3] Antagonist | [4] Antagonist | [5]
